From paper PMC10099666, “Structure Elucidation, Total Synthesis, Antibacterial In Vivo Efficacy and Biosynthesis Proposal of Myxobacterial Corramycin” (Angewandte Chemie (International Ed. in English), 2022)
≈ marks a conversion by molar mass, not a printed value. *1 amine or outer side, *2 acyl side, *3 side chain or, on linkers, in order; H or OH if unused. Where a SMILES comes first, the peptide text is derived from it. [ ]: non-standard residue; d: D form. The star is where a group is joined. Ava(2S,3R-(OH)2,4S-OMe) = CO[C@@H](CN[*:1])[C@H](O)[C@H](O)C(=O)[*:2]; dHis(βS-OH,π-Me) = Cn1cncc1[C@@H](O)[C@@H](N)C(=O)O; Butanoyl(2R-OH,3S-OH) = C[C@H](O)[C@@H](O)C(=O)*; Val(3-OH) = CC(C)(O)[C@H](N)C(=O)O; NMeF = CN[C@@H](Cc1ccccc1)C(=O)O

What was measured:
[1] = system: Enterobacter cloacae DSM46348; type: cell-based; conditions: strain DSM46348; CAMHB, CLSI/EUCAST broth microdilution, 5x10^5 CFU mL-1, 20-22 h, duplicates
Method: (§1) 5. Determination of the minimal inhibitory concentration (MIC) in vitro The MIC of Corramycin was evaluated following the Clinical & Laboratory Standard Institute (CLSI; https://clsi.org) and EUCAST (https://eucast.org) guidelines. First, inoculi of the bacterial test strains were prepared by culturing isolated colonies in cation-adjusted Müller Hinton broth (CAMHB; 2 g L-1 beef infusion solids, 1.5 g L-1 starch, 17.5 g L-1 casein hydrolysates, final pH 7.4) at 37 °C and 180 rpm for 18 h. Next, Corramycin, which was dissolved in DMSO, was transferred into the first row of a 96-well plate to reach an end concentration of 64 µg mL-1 (in 100 µL total volume). A 1:1 serial dilution in cation-adjusted Mueller Hinton broth (CAMHB) of the test compound was done from the top row to the bottom row of the 96-well plate to reach an end concentration of 0.125 µg mL-1 in the bottom row. Afterwards, the respective test strains were transferred into the wells, reaching a total volume of 100 µL and 5x10^5 colony-forming units (CFU) mL-1. After a 20 to 22 h of incubation, the optical density was evaluated on a microplate reader and the MIC endpoint was determined as the lowest concentration of antibiotic at which there was no visible growth observed. Each MIC experiment was performed in duplicates. Table S 4 depicts the MIC values of Corramycin against all bacterial strains tested in this study.
(§2) Table S 4. MIC values of Corramycin against all bacterial strains tested in this study. […]

[2] = system: Escherichia coli ATCC35218; type: cell-based; conditions: strain ATCC35218; CAMHB, CLSI/EUCAST broth microdilution, 5x10^5 CFU mL-1, 20-22 h, duplicates
Method: as §1, §2

[3] = system: Escherichia coli NCTC10418; type: cell-based; conditions: strain NCTC10418; CAMHB, CLSI/EUCAST broth microdilution, 5x10^5 CFU mL-1, 20-22 h, duplicates
Method: as §1, §2

[4] = system: Klebsiella pneumoniae 1705949; type: cell-based; conditions: strain 1705949; CAMHB, CLSI/EUCAST broth microdilution, 5x10^5 CFU mL-1, 20-22 h, duplicates
Method: as §1, §2

[5] = system: Klebsiella pneumoniae 1705966; type: cell-based; conditions: strain 1705966; CAMHB, CLSI/EUCAST broth microdilution, 5x10^5 CFU mL-1, 20-22 h, duplicates
Method: as §1, with “study. […]” for “study.”

[6] = system: Salmonella typhimurium ATCC13311; type: cell-based; conditions: strain ATCC13311; CAMHB, CLSI/EUCAST broth microdilution, 5x10^5 CFU mL-1, 20-22 h, duplicates
Method: as §1, with “study. […]” for “study.”

[7] = system: Enterococcus faecalis 1069 VanB; type: cell-based
Method: as §1, with “study. […]” for “study.”

[8] = type: in vivo; conditions: single i.v. bolus 30 mg kg-1, male Swiss mice, LC/MS-MS, three animals per sampling time
Method: However, despite this rapid elimination, the antibacterial effect was strong enough in the animals to achieve survival after a single day of treatment.
Figure S 71. A) Blood bacteremia experiment. E. coli ATCC35218 CFU load after treatment of infected mice with 10 mg kg-1, 20 mg kg-1 or 30 mg kg-1 Corramycin. B) Survival of the E. coli ATCC35218 infected mice in %, after one day of treatment with either 0.9 % NaCl (negative control), Tienam (15 mg kg-1 Imipenem; positive control) or Corramycin in three different doses (10 mg kg-1, 20 mg kg-1 or 30 mg kg-1).
14.2 Corramycin elimination experiment
Native Corramycin systemic exposure was determined following a single intravenous (30 mg kg-1 expressed as active compound) bolus administration to male Swiss mice. […]
Lung, brain, kidney, heart and liver were collected at each sampling time (5 min, 0.5, 1, 2, 4, 6, 8 and 24 h post administration) pooled per sampling time, weighed and frozen at -20 °C until analysis. Native Corramycin was quantified in the plasma and tissues using an exploratory LC/MS-MS assay method in Early Bioanalysis Group of Toulouse (Montpellier DSAR Operational Center), France. […] The pharmacokinetic parameters were calculated from the arithmetic mean of the plasma concentrations or the tissue concentrations (lung, brain, kidney, heart and liver) using the program WinNonLin 5.2, non-compartmental models 200 and 201. […]

In the case of `CO[C@@H](CNC(=O)[C@H](NC(=O)[C@H](O)[C@H](C)O)[C@H](O)c1cncn1C)[C@H](O)[C@H](O)C(=O)N(C)[C@@H](Cc1ccccc1)C(=O)NCC(=O)N[C@H](C(=O)N[C@@H](CO)C(=O)N[C@H](C(=O)N[C@@H](CC(C)C)C(=O)N[C@@H](CO)C(=O)O)C(C)(C)O)C(C)(C)O` [Corramycin] ({Butanoyl(2R-OH,3S-OH)}-[dHis(βS-OH,π-Me)][Ava(2S,3R-(OH)2,4S-OMe)][NMeF]G[Val(3-OH)]S[Val(3-OH)]LS-OH), the MIC [1] is reported as 32 µg/mL (≈ 27 µM), the MIC [2] is reported as 1 to 4 µg/mL and the MIC [3] is reported as 8 µg/mL (≈ 6.76 µM). The MIC [4] was 64 µg/mL (≈ 54 µM), the MIC [5] was greater than 64 µg/mL and the MIC [6] was 4 µg/mL (≈ 3.38 µM). The MIC [7] was 16 µg/mL (≈ 13.5 µM), the “Time of plasma concentration above the MIC after i.v. administration” value [8] was “less than 30 minutes” and the Cytotoxicity (mammalian cell lines) was “no cytotoxicity”.
